molecular target: recombinant human integrin αvβ6 (Homo sapiens (Human), UniProt P06756+P18564); assay: Solid phase integrin αvβ6 binding assay; details: TGFβ1 LAP as ligand, IC50 presented in four ranges, read-out: αvβ6 Inhibition IC50 (nM) - range
Method: (§1) Microplates were coated with recombinant human integrin αvβ6 (2 μg/mL) in PBS (100 μL/well 25° C., overnight). The coating solution was removed, washed with wash buffer (0.05% Tween 20; 0.5 mM MnCl2; in 1×TBS). The plate was blocked with 200 μL/well of Block Buffer (1% BSA; 5% sucrose; 0.5 mM MnCl2; in 1×TBS) at 37° C. for 2 h. Dilutions of testing compounds and recombinant TGFβ1 LAP (0.67 μg/mL) in binding buffer (0.05% BSA; 2.5% sucrose; 0.5 mM MnCl2; in 1×TBS) were added. The plate was incubated for 2 hours at 25° C., washed, and incubated for 1 hour with Biotin-Anti-hLAP. Bound antibody was detected by peroxidase-conjugated streptavidin. The IC50 values for testing compounds were calculated by a four-parameter logistic regression.
The compounds tested were compound samples prepared according to procedures described in the Synthetic Examples section, with the stereochemical purity as indicated in the Examples.
as §1, with “A third series of exemplary compounds was selected for testing in the solid phase integrin αvβ6 binding assay. The compounds tested were compound samples prepared according to procedures described in the Synthetic Examples section, with the stereochemical purity as indicated in the Examples. As in Example B1, microplates” for “Microplates”

recombinant human integrin αvβ6, sequence (P06756 31-992): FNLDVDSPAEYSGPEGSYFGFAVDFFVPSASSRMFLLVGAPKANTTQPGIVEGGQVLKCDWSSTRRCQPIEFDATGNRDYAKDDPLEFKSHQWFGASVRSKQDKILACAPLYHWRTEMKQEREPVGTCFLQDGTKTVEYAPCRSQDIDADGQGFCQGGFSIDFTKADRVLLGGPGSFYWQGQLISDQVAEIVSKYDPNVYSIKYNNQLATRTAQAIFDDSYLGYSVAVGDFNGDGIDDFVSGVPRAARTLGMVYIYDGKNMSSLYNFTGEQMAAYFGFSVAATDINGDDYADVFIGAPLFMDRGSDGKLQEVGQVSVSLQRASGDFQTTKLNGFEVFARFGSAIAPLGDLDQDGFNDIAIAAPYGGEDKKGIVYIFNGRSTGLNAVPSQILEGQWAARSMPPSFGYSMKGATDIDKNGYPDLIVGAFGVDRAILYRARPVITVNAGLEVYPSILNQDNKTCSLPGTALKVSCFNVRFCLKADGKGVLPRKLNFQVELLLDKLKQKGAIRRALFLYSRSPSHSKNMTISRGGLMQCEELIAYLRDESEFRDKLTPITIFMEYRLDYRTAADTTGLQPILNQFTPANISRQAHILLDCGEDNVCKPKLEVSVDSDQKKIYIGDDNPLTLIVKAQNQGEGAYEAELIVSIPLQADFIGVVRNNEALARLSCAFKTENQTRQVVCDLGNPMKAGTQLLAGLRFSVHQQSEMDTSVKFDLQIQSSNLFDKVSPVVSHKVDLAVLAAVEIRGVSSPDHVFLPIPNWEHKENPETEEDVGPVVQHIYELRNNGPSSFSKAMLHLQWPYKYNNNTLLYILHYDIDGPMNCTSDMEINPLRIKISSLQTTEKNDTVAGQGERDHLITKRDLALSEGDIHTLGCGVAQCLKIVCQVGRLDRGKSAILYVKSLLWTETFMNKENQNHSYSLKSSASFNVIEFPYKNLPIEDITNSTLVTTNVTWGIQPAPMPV
recombinant human integrin αvβ6, sequence (P18564 22-707): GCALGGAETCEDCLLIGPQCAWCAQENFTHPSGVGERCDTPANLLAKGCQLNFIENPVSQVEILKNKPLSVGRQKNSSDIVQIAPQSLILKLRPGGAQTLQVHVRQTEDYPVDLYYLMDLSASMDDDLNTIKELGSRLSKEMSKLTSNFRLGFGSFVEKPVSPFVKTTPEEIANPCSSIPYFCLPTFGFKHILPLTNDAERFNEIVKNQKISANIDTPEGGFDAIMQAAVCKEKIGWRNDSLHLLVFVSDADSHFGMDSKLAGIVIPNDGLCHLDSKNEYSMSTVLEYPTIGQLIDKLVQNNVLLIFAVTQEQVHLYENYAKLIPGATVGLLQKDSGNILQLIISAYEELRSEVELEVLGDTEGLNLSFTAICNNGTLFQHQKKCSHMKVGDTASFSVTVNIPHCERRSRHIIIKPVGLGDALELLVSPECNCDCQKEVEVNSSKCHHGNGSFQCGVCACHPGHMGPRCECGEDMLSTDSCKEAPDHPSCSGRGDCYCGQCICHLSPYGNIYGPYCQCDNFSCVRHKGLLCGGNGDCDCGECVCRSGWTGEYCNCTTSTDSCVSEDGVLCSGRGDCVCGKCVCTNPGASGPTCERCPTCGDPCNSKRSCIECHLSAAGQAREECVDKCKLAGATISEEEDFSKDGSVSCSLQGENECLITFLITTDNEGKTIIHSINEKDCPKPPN

Row | IC50 [nM] | Compound
1 | 50 to 250 | Cn1ncc2c(N[C@@H](CCN(CCCCc3ccc4c(n3)NCCC4)CCS(C)(=O)=O)C(=O)O)ncnc21 [Compound 101, (S)-2-((1-methyl-1H-pyrazolo[3,4-d]pyrimidin-4-yl)amino)-4-((2-(methylsulfonyl)ethyl) (4-(5,6,7,8-tetrahydro-1,8-naphthyridin-2-yl)butyl)amino) butanoic acid]
2 | 250 to 1000 | COC[C@@H](F)CN(CCCCc1ccc2c(n1)NCCC2)CC[C@H](Nc1ccncn1)C(=O)O [Compound 127, (S)-4-(((S)-2-fluoro-3-methoxypropyl) (4-(5,6,7,8-tetrahydro-1,8-naphthyridin-2-yl)butyl)amino)-2-(pyrimidin-4-ylamino) butanoic acid]
3 | 50 to 250 | O=C(O)[C@H](CCN(CCCCc1ccc2c(n1)NCCC2)CCC(F)F)Nc1ncc(Br)cn1 [Compound 131, (S)-2-((5-bromopyrimidin-2-yl)amino)-4-((3,3-difluoropropyl) (4-(5,6,7,8-tetrahydro-1,8-naphthyridin-2-yl)butyl)amino) butanoic acid]
4 | 50 to 250 | O=C(O)[C@H](CCN(CCCCc1ccc2c(n1)NCCC2)CCC(F)F)Nc1ncc(C2CC2)cn1 [Compound 135, (S)-2-((5-cyclopropylpyrimidin-2-yl)amino)-4-((3,3-difluoropropyl) (4-(5,6,7,8-tetrahydro-1,8-naphthyridin-2-yl)butyl)amino) butanoic acid]

More lines, now with the values behind:

Row | Compound | IC50 [nM]
5 | O=C(O)[C@H](CCN(CCCCc1ccc2c(n1)NCCC2)C1CC1)Nc1ccncn1 [Compound 2, (S)-4-(cyclopropyl(4-(5,6,7,8-tetrahydro-1,8-naphthyridin-2-yl)butyl)amino)-2-(pyrimidin-4-ylamino) butanoic acid] | 250 to 1000
6 | CO[C@H](C)CN(CCCCc1ccc2c(n1)NCCC2)CC[C@H](Nc1ncncc1-c1ccccc1)C(=O)O [Compound 81, (S)-4-(((R)-2-methoxypropyl) (4-(5,6,7,8-tetrahydro-1,8-naphthyridin-2-yl)butyl)amino)-2-((5-phenylpyrimidin-4-yl)amino) butanoic acid] | < 50
7 | COC[C@@H](F)CN(CCCCc1ccc2c(n1)NCCC2)CC[C@H](Nc1ncc(C#N)cn1)C(=O)O [Compound 84, (S)-2-((5-cyanopyrimidin-2-yl)amino)-4-(((S)-2-fluoro-3-methoxypropyl) (4-(5,6,7,8-tetrahydro-1,8-naphthyridin-2-yl)butyl)amino) butanoic acid] | 250 to 1000

— patent publication US11560376B2, “Amino acid compounds and methods of use” (Pliant Therapeutics, Inc., priority 2018, dated 2023)
